Consider 11 compounds from publication PMC10922772 (ACS infectious diseases, 2024).

Molecules are shown by their SMILES. Bounds are passed on as bounds.

Experiment [1] deals with SARS-CoV-2 (Washington strain, 2020). Put plainly: microbe, parasite or virus in culture. In kind it is cell-based. The following applies: for EC68 (half-log reduction of virus titer): 0.01 MOI.
Experiment [2] concerns the target SARS-CoV-2 Mpro (Severe acute respiratory syndrome coronavirus 2, UniProt P0DTD1). The experiment in a line: biochemical. The settings on record: for IC50: IC50, enzyme 100 nM, substrate 20 μM, 10 min preincubation, pH 6.5; for activity reduction vs. compound 30: compared with more active diastereomer of 30; for inhibition at 20 µM: read-out: % inhibition at 20 μM.

Where [3] appears, read: Severe acute respiratory syndrome coronavirus 2, Vero, read-out: inhibition of SARS-CoV-2 replication.

The term EC90 denotes the concentration at which the effect reaches the 90% level. A word on the IC50: it is the concentration at which inhibition is half-maximal. A low value points to higher potency. As a reminder, the inhibition is the percentage by which the read-out fell short of the control.

Regarding `CC(C)(C)c1ccc(N(C(=O)C2CO2)C(C(=O)NC2CCCCC2)c2cccnc2)cc1` [(R, S)- and (S, R)-30, N-(4-(tert-Butyl)phenyl)-N-(2-(cyclohexylamino)-2-oxo-1-(pyridin-3-yl)ethyl)oxirane-2-carboxamide], the EC90 in experiment [1] (Severe acute respiratory syndrome coronavirus 2, Vero, 48 h) came out at 15000 nM. Besides, the “EC68 (half-log reduction of virus titer)” value in experiment [1] (Vero cells, 48 h) is 5 μM. In experiment [2], the “activity difference between the two separated diastereomers” value is on record as more than 10 fold and the IC50 came to 760 ± 180 nM.
Turning to `CC1OC1C(=O)N(c1ccc(C(C)(C)C)cc1)C(C(=O)NC1CCCCC1)c1cccnc1` [(R, S, R)- and (S, R, S)-35, N-(4-(tert-Butyl)phenyl)-N-(2-(cyclohexylamino)-2-oxo-1-(pyridin-3-yl)ethyl)-3-methyloxirane-2-carboxamide], in experiment [1] (Vero cells, 48 h), the “EC68 (half-log reduction of virus titer)” value came to 15 μM. Further, in experiment [2], the “activity difference between the two separated diastereomers” value is on record as more than 10 fold, the IC50 came out at 1900 ± 210 nM and the “activity reduction vs. compound 30” value was not above 3 fold.
Take `CC(C)(C)NC(=O)C(c1cccnc1)N(C(=O)CCl)c1ccc(C(C)(C)C)cc1` (centres unmarked) [Compound 13, N-(tert-Butyl)-2-(N-(4-(tert-butyl)phenyl)-2-chloroacetamido)-2-(pyridin-3-yl)acetamide]: the inhibition at 3 µM in experiment [1] (setting [3]) worked out at 68%. The inhibition at 5 µM in experiment [1] (setting [3]) is 97%. For the same compound, in experiment [1] (Vero cells, 48 h), the “EC68 (half-log reduction of virus titer)” value came to 3 μM. Further, the titer reduction in experiment [1] (at 3 μM, Vero cells) stood at 0.5 log; in experiment [1] (at 5 μM, Vero cells), 1.5 log. In addition, in experiment [2], inhibition was half-maximal at 600 ± 50 nM (IC50).
In the case of `CC(C)(C)NC(=O)C(c1cccnc1)N(C(=O)C(=O)Cc1ccccc1)c1ccc(C(C)(C)C)cc1` (centres unmarked) [Compound 31, N-(4-(tert-Butyl)phenyl)-N-(2-(tert-butylamino)-2-oxo-1-(pyridin-3-yl)ethyl)-2-oxo-3-phenylpropanamide], in experiment [2], the “inhibitory activity against Mpro (in words)” value was “inactive” and the inhibition at 20 µM amounted to 0%.
As to `CC(C)(C)NC(=O)C(c1cccnc1)N(C(=O)CO)c1ccc(C(C)(C)C)cc1` (centres unmarked) [Compound 32, N-(tert-Butyl)-2-(N-(4-(tert-butyl)phenyl)-2-hydroxyacetamido)-2-(pyridin-3-yl)acetamide], in experiment [2], the inhibition at 20 µM was 21%.
On the same count and under the same terms, the figure for `CC(=O)OCC(=O)N(c1ccc(C(C)(C)C)cc1)C(C(=O)NC(C)(C)C)c1cccnc1` (centres unmarked) [Compound 33, 2-((4-(tert-Butyl)phenyl)(2-(tert-butylamino)-2-oxo-1-(pyridin-3-yl)ethyl)amino)-2-oxoethyl acetate] is 0%; for `CC(C)(C)c1ccc(N(C(=O)CC#N)C(C(=O)NC2CCCCC2)c2cccnc2)cc1` (centres unmarked) [Compound 34, N-(4-(tert-Butyl)phenyl)-2-cyano-N-(2-(cyclohexylamino)-2-oxo-1-(pyridin-3-yl)ethyl)acetamide] it is 28%.
As for `CC(C)(C)c1ccc(N(C(=O)C2OC2(C)C)C(C(=O)NC2CCCCC2)c2cccnc2)cc1` (centres unmarked) [Compound 36, N-(4-(tert-Butyl)phenyl)-N-(2-(cyclohexylamino)-2-oxo-1-(pyridin-3-yl)ethyl)-3,3-dimethyloxirane-2-carboxamide], the “antiviral activity (in words)” value in experiment [1] (at 15 μM, Vero cells) was “inactive”. In experiment [2], the half-maximal inhibitory concentration (IC50) amounted to 2500 ± 280 nM and the “activity reduction vs. compound 30” value is recorded as not above 3 fold.
`CC1(C(=O)N(c2ccc(C(C)(C)C)cc2)C(C(=O)NC2CCCCC2)c2cccnc2)CO1` (centres unmarked) [Compound 37, N-(4-(tert-Butyl)phenyl)-N-(2-(cyclohexylamino)-2-oxo-1-(pyridin-3-yl)ethyl)-2-methyloxirane-2-carboxamide]: in experiment [2], the “activity reduction vs. compound 30” value is reported as more than 25 fold and the inhibition at 20 µM was 28%.
On to `CC(C)(C)NC(=O)C(c1cccnc1)N(C(=O)C1OC1(C)C)c1ccc(C(C)(C)C)cc1` (centres unmarked) [Compound 40, N-(4-(tert-Butyl)phenyl)-N-(2-(tert-butylamino)-2-oxo-1-(pyridin-3-yl)ethyl)-3,3-dimethyloxirane-2-carboxamide], for which, in experiment [2], the inhibition at 20 µM is 31%.
As to `CC(C)(C)NC(=O)C(c1cccnc1)N(C(=O)C1(C)CO1)c1ccc(C(C)(C)C)cc1` (centres unmarked) [Compound 41, N-(4-(tert-Butyl)phenyl)-N-(2-(tert-butylamino)-2-oxo-1-(pyridin-3-yl)ethyl)-2-methyloxirane-2-carboxamide], the inhibition at 20 µM in experiment [2] came to 22%.
